Results reported in patent US20230065562A1, “DUAL CONTROLS FOR THERAPEUTIC CELL ACTIVATION OR ELIMINATION” (Bellicum Pharmaceuticals, Inc., priority 2015, published 2023).

Experiments:
non-transduced cells = assay: AP20187 on non-transduced cells (annexin V/7-AAD viability); type: cell-based, human
Description: Suicide gene functionality was assessed by adding a small molecule synthetic homodimerizer, AP20187 (Ariad Pharmaceuticals; Cambridge, Mass.), at 10 nM final concentration the day following CD19 immunomagnetic selection. Cells were stained with annexin V and 7-amino-actinomycin (7-AAD)(BD Pharmingen) at 24 hours and analyzed by flow cytometry. Cells negative for both annexin V and 7-AAD were considered viable, cells that were annexin V positive were apoptotic, and cells that were both annexin V and 7-AAD positive were necrotic. The percentage killing induced by dimerization was corrected for baseline viability as follows: Percentage killing=100%−(% Viability in AP20187-treated cells÷% Viability in nontreated cells).
The day following immunomagnetic selection, 10 nM of the chemical inducer of dimerization, AP20187, was added to induce apoptosis, which appeared within 24 hours. […] Killing efficiency after correction for baseline viability was about 92.9%±3.8%. Large-scale CD19 selection produced cells that were killed with similar efficiency as small-scale selection: mean viability with and without AP20187, and percentage killing, in large and small scale were about 3.9%, about 84.0%, about 95.4% (n=3) and about 6.6%, about 79.3%, about 91.4% (n=5) respectively. […]

CD123+ THP-1 tumor cells = assay: NSG tumor xenograft model, THP-1-EGFPluc, iMC-CD123.ζ-modified T cells with Rim; type: in vivo, mouse; conditions: costimulation by systemic rimiducid administration (1 mg/kg i.p. days 0 and 15)
Description: Animal experiments: In vivo efficacy of iMC-CD123.ζ-modified T cells was assessed using an immune-deficient NSG tumor xenograft model. One million EGFPluc-expressing CD123^+ THP-1 tumor cells were injected i.v. into the animals, followed by a single i.v. injection on day 7 with varying non-transduced or iMC-CD123.ζ-modified T cells. Groups receiving CAR-T cells subsequently received i.p. injections of Rim (1 mg/kg) or vehicle only on days 0 and 15 post-T cell injection. Animals were evaluated for THP-1-EGFPluc tumor burden and weight change on a weekly basis using IVIS bioluminescent imaging (BLI) and for T cell persistence by flow cytometry and qPCR at day 30 post-T cell injection.
FIG. 114. (A) PBMCs were activated and transduced with retrovirus including the CD123 iMC-CARζ vector. Twelve days after transduction, CAR expression was determined using anti-Q-bend10 antibody before injection into mice. […] (C) THP1-GFP.Fluc growth was measured using IVIS bioluminescence. (D, E) On day 30, mice were sacrificed and spleens were analyzed for the presence of CAR-T cells by flow cytometry and vector copy number assay.
(B) On day 29, mice were sacrificed and spleens were analyzed for the presence of CAR-T cells by vector copy number assay.

[1] = test system: iRmC9 T cells (pBP1327, GFP-Fluc); assay: In vivo apoptotic activation in NSG mice, iRmC9 T cells (IVIS imaging, spleen FACS); parameters: species or system mouse; conditions: 5 mg/kg rimiducid or 10 mg/kg rapamycin i.p.
Description: PBMCs from donor 676 were activated and co-transduced with one of the off-switches and GFP-Fluc retroviruses. Eleven days after transduction, cells were analyzed for transduction efficiency with GFP and anti-CD3/anti-CD19 antibodies (FIG. 109A). […] The CD19^+ MFI for the different T cell populations were: iC9=15.07, iRC9=14.38, and iRmC9=13.39. The cells were collected, counted, washed, and resuspended at 1×10^6 cells in 100 μl PBS for each tail vein mouse injection (Table 10) (time=−18 hr). […] IVIS imaging was performed at −14, 0, 5, 24 and 29 hours. Mice were sacrificed and spleens were collected for FACS analysis with hCD3, hCD19 and mCD45 antibodies. […] The higher percentage of remaining iRmC9 T cells observed may be due to an artifact of normalizing the no drug group.
PBMCs from donor 676 were activated and co-transduced with retroviruses encoding the pBP0220, 1310, 1327 vectors and the GFP-Fluc plasmid. (FIG. 109A) Eleven days post transduction, the cells were analyzed for CD19 and GFP transduction efficiency prior to injection into mice. (FIGS. 109B & C) NSG mice were injected i.v. with 107 T cells co-transduced with GFP-Fluc per mouse and suicide drugs were injected i.p. the next day. Bioluminescence of cells was assessed at −14, 0, 5, 24, and 29 hours post-drug administration. (FIG. 109D) At 29-h post-drug treatment, mice were euthanized and spleens were collected for flow cytometry analysis with antibodies to hCD3, […], and mCD45

NF-κB = NF-κB SeAP reporter assay of inducible MyD88/CD40 activity; type: cell-based
Description: 293T cells were transfected with 1 μg of reporter construct NF-κB SeAP and 4 μg of the iMC+CARζ construct pBP0774 or the MC-rap-CAR construct pBP1440 using the GeneJuice protocol (Novagen). […] After 24 hours of further incubation SeAP activity was determined from cell supernatants.
HEK 293T cells (1.5×10^5) were seeded on a 100-mm tissue culture dish in 10 mL DMEM4500, supplemented with glutamine, penicillin/streptomycin and 10% fetal calf serum. After 16-30 hours incubation, cells were transfected using Novagen's GeneJuice® protocol. Briefly, for each transfection, 0.5 mL OptiMEM was pipetted into a 1.5-mL microcentrifuge tube and 15 μL GeneJuice reagent added followed by 5 sec. vortexing. Samples were rested 5 minutes to settle the GeneJuice suspension. DNA (5 μg total) was added to each tube and mixed by pipetting up and down four times. Samples were allowed to rest for 5 minutes for GeneJuice-DNA complex formation and the suspension added dropwise to one dish of 293T cells. A typical transfection contains 1 μg NFkB-SEAP (5), 4 μg iMC+CARζ(pBP0774) or 4 μg MC-Rap-CAR (pBP1440) (1).
24 hours following transfection (4.1), 293T cells were split to 96-well plates and incubated with dilutions of dimerizing drugs. Briefly, 100 μL media was added to each well of a 96-well flat-bottom plate. Drugs were diluted in tubes to a concentration 4× the top concentration in the gradient to be place on the plate. […] 100 μL from each drug-containing well was then transferred to the adjacent well and the cycle repeated 10 times to produce a serial two-fold step gradient. The last wells were untreated and serve as a control for basal reporter activity. Transfected 293 cells were then trypsinized, washed with complete media, suspended in media and 100 μL aliquoted to each well containing drug (or no drug). Cells were incubated 24 hours.
24 hours after drug stimulation, 96-well plates were wrapped to prevent evaporation and incubated at 65° C. for 2 hours to inactivate endogenous and serum phosphatases while the heat-stable SeAP reporter remains (3, 12, 14). 100 μL samples from each well were loaded into individual wells of a 96-well assay plate with black sides. Samples were incubated with 0.5 mM 4-methylumbelliferyl phosphate (4-MUP) in 0.5 M diethanolamine at pH 10.0 for 4 to 16 hours. Phosphatase activity was measured by fluorescence with excitation at 355 nm and emission at 460 nm. Data was transferred to a Microsoft Excel spreadsheet for tabulation and graphed with GraphPad Prism.

iRC9 = target: T1, iRC9 (Homo sapiens, UniProt P42345+P62942); assay: Incucyte/casp3/7 and SEAP assays in transfected 293 cells (FIG. 107); type: cell-based
T1 construct: expressed in transfected cells; host or cells: 293 cells
T1 sequence (P42345 2025-2113): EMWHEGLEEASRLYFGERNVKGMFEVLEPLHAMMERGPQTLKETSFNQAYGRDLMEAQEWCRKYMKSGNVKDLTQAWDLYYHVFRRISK
T1 sequence (P62942 2-107): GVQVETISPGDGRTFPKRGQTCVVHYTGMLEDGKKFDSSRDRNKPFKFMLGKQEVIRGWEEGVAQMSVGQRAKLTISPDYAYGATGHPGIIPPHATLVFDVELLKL
T1 sequence (P55211 135-416 partner limits assumed): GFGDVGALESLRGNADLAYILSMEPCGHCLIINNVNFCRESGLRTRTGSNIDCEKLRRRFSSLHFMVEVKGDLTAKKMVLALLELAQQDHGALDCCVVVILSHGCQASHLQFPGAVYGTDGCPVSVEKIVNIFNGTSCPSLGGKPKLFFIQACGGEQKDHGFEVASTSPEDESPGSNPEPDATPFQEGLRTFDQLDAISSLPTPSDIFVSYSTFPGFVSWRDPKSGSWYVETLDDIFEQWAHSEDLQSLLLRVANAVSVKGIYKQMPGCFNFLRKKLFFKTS
Description: FIG. 107. […] 293 cells were seeded at 300,000 cells/well in a 6-well plate and allowed to grow for 2 days. After 48 h, cells were transfected with 1 μg of experimental plasmids. Cells were harvested 48 h after transfection and diluted 2.5× their original volume.

T cells expressing iC9 = assay: T cell killing assay with caspase 3/7 green reagent monitored by IncuCyte, iC9; type: cell-based, human; conditions: increasing doses, PBMCs from 3 donors, FIG. 108B
Description: To determine the functionality of these switches in activated T cells, retroviral supernatants were produced and transduced into PBMCs activated from 3 separate donors.

## CC[C@H](C(=O)N1CCCC[C@H]1C(=O)O[C@H](CCc1ccc(OC)c(OC)c1)c1cccc(OCC(=O)NCC(CNC(=O)COc2cccc([C@@H](CCc3ccc(OC)c(OC)c3)OC(=O)[C@@H]3CCCCN3C(=O)[C@@H](CC)c3cc(OC)c(OC)c(OC)c3)c2)CN(C)C)c1)c1cc(OC)c(OC)c(OC)c1 [AP20187]
non-transduced cells
  toxicity to non-transduced cells: non-toxic
non-transduced cells; non-transduced cells (n=6)
  viability with AP20187: about 86%±9

## CC[C@H](C(=O)N1CCCC[C@H]1C(=O)O[C@H](CCc1ccc(OC)c(OC)c1)c1cccc(OCC(=O)NCCNC(=O)COc2cccc([C@@H](CCc3ccc(OC)c(OC)c3)OC(=O)[C@@H]3CCCCN3C(=O)[C@@H](CC)c3cc(OC)c(OC)c(OC)c3)c2)c1)c1cc(OC)c(OC)c(OC)c1 [rimiducid]
CD123+ THP-1 tumor cells
  eradication of CD123+ leukemic cells by iMC-CARζ T cells: efficiently eradicated
[1]; spleen FACS, FIG. 109D
  iRmC9 T cells remained in splenocytes (normalized to no drug group): ~50%
[1]; NSG mice, FIGS. 109B & C
  removal of iRmC9 T cells (IVIS imaging): induced significant removal
NF-κB; MC-rap-CAR construct pBP1440, read-out: EC50 / concentration stimulating NF-κB reporter activity via MC-Rap
  EC50: > 50 nM
NF-κB; iMC+CARζ construct BP774
  concentration inducing NF-κB reporter via iMC: subnanomolar
iRC9
  rimiducid concentration required to activate iRC9: > 100 nM
T cells expressing iC9
  activation of iC9 in T cells (caspase 3/7): can activate
